The values that follow come from US5227153A, “Use of 4-(2-oxo-3-bornylidenemethyl)benzenesulfphonic acid or its salts for the protection of hair against environmental attacking agents, and in particular against light, and process for the protection of hair using this compound” (L'Oreal, priority 1988, dated 1993).

The nature of data set [1]: Mechanical properties of hair after exposure in natural light and artificial xenon light. The settings on record: natural light (sunny environment) and artificial light (xenon, SUNTEST HANAU). The source says: (§1) The 15% extension level is the weight to be applied to wet hair of given length to extend it by 15%. The higher the weight, the stronger and more elastic the hair.
It has been possible to reveal this property by exposure in natural light (sunny environment) and artificial light (xenon light emitter in a SUNTEST HANAU type accelerated aging apparatus).

Data set [2] can be described thus: 15% wet extension level of bleached hair after exposure to light (SUNTEST HANAU xenon apparatus). The procedure:
as §1
This composition is applied to bleached hair, then rinsed. The hair is then exposed to the Suntest by means of a "SUNTEST HANAU" apparatus for 120 hours. This apparatus consists of a xenon light emitter and a system of filters producing a radiation corresponding to a very large extend to solar radiation. The energy radiation is about 585 W/m^2 in the wavelength range between 300 and 830 nm (overall radiation).
After applying this foam to bleached hair three times and without consecutive rinsing, the hair is exposed to the Suntest as described in Example 1 for 180 hours.
Bleached hair treated with one application of this spray and not rinsed is then exposed to the Suntest under the conditions described in Example 1 for 120 hours.
Bleached hair treated with one application of this gel and not rinsed is then exposed to the Suntest under the conditions described in Example 1 for 120 hours.

With `CC12CCC(C(=Cc3ccc(S(=O)(=O)O)cc3)C1=O)C2(C)C` (centres unmarked) [4-(2-oxo-3-bornylidenemethyl)benzenesulphonic acid], the “preservation of the mechanical properties of hair from degradation by light” value in data set [1] is “can preserve the mechanical properties of hair”. The “improvement in the mean value of the 15% wet extension level” value in data set [2] (rinse composition with 5 g per 100 g of the acid, rinsed, Suntest 120 hours, compared to same rinse containing no acid) was “very significantly improved”; in data set [2] (styling foam with 1.5 g per 100 g of the acid (90 g composition + 10 g propellant), applied three times, not rinsed, Suntest 180 hours, compared to same foam containing no acid) it was “appreciable improvement”; in data set [2] (styling gel with 0.4 g per 100 g of the acid, one application, not rinsed, Suntest 120 hours, compared to same gel without the acid), “appreciable improvement”; in data set [2] (styling spray with 1 g per 100 g of the acid, one application, not rinsed, Suntest 120 hours, compared to same spray containing no acid), “significant improvement”.
